Drawing on patent US12209102B2, “Heterocyclic compounds and uses thereof” (Kumquat Biosciences Inc., priority 2022, dated 2025), this text covers IC50 for ten compounds.

pIC50: −log10 of the molar value.

One assay concerns GP2D cells. In words: Ras cellular assay, growth of cells with K-Ras G12D mutation (CellTiter-Glo). It is filed as cell-based. As to conditions: cell growth, Example 9, G12D mutation, read-out: IC50 against GP2D cells. On the technique in general: Cellular ATP, detected with luciferase, serves as a proxy for viable cell number.
A further assay relates to A549 cells. The assay can be described thus: Ras cellular assay, growth of cells with K-Ras G12S mutation (CellTiter-Glo). The assay is classed as cell-based. As to conditions: Homo sapiens, cell growth, Example 9, G12S mutation, read-out: IC50 against A549 cells. In outline: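 Growth inhibition IC50 values come from four-parameter fits of CellTiter-Glo luminescence, read about 6 days after compound addition. G12S-mutant A549 cells (e.g. 800/well, RPMI-1640 + 10% heat-inactivated FBS) were plated in tissue-culture-treated or ultra-low-attachment 384-well format. Dosing began the following day with serial dilutions, e.g. 10 points, 3-fold.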

A further assay has as its target T1, K-Ras WT (Homo sapiens, UniProt P01116).
T1 construct: made in house; host or cells: E. coli BL21 (DE3)
In words: HTRF resonance energy transfer assay, K-Ras WT / SOS1 interaction. The assay is classed as biochemical. As to conditions: HTRF assay of Example 5; read-out: IC50 against K-Ras WT. In outline: (§1)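 Buffer about 5 mM HEPES pH 7.4 with ~150 mM NaCl, ~1 mM DTT, 0.05% BSA, 0.0025% (v/v) Igepal. Protein constructs used at molarity matching the IC50 range studied (e.g. ~500 nM). FRET between tagged K-Ras and hSOS1 measured after short incubation.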
In general terms: TR-FRET usually uses a lanthanide donor and a delayed reading to cut background.

The target of a further assay is T2, K-Ras G12V (Homo sapiens, UniProt P01116, G12V).
T2 construct: made in house; host or cells: E. coli BL21 (DE3)
T2 sequence (P01116 1-188 isoform P01116-2 G12V): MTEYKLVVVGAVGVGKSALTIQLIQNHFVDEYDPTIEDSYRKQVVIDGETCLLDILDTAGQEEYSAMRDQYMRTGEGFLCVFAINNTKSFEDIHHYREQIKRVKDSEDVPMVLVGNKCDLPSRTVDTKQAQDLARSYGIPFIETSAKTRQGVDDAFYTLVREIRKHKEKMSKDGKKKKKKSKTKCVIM
The assay can be described thus: HTRF resonance energy transfer assay, K-Ras G12V / SOS1 interaction. To be noted: HTRF assay of Example 5; read-out: IC50 against K-Ras G12V. The assay is classed as biochemical. In outline: as §1

Another assay deals with SW620 cells. In words: Ras cellular assay, growth of cells with K-Ras G12V mutation (CellTiter-Glo). The assay is classed as cell-based. To be noted: Homo sapiens, SW-620; cell growth, Example 9, G12V mutation; read-out: IC50 against SW620 cells. In outline:
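IC50 values came from a four-parameter fit of CellTiter-Glo viability, read roughly 6 days after dosing with e.g. a 10-point threefold dilution series. G12V-mutant SW620 cells (e.g. 800 per well) had been plated the previous day in RPMI-1640/10% heat-inactivated FBS, on tissue culture-treated or ultra-low attachment plates.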

The next assay deals with T3, K-Ras G12S (Homo sapiens, UniProt P01116, G12S).
T3 construct: made in house; host or cells: E. coli BL21 (DE3)
T3 sequence (P01116 1-188 isoform P01116-2 G12S): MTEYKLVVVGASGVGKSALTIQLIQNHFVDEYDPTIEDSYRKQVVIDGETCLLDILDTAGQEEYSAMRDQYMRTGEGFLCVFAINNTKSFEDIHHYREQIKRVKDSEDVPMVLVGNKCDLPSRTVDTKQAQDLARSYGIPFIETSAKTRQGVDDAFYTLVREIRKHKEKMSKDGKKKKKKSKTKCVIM
The assay can be described thus: HTRF resonance energy transfer assay, K-Ras G12S / SOS1 interaction. It is filed as biochemical. As to conditions: HTRF assay of Example 5; read-out: IC50 against K-Ras G12S. In outline:
as §1

A further assay has as its target T4, K-Ras G12D (Homo sapiens, UniProt P01116, G12D).
T4 construct: made in house; host or cells: E. coli BL21 (DE3)
In words: HTRF resonance energy transfer assay, K-Ras G12D / SOS1 interaction. It is filed as biochemical. As to conditions: HTRF assay of Example 5; read-out: IC50 against K-Ras G12D. In outline:
as §1

T4 sequence (P01116 1-188 isoform P01116-2 G12D): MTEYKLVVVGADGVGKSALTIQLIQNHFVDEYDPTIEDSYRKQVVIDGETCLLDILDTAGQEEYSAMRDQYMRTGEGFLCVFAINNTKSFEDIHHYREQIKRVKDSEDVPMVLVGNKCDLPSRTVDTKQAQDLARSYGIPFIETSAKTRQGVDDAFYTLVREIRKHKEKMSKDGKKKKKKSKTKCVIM
T1 sequence (P01116 1-188 isoform P01116-2): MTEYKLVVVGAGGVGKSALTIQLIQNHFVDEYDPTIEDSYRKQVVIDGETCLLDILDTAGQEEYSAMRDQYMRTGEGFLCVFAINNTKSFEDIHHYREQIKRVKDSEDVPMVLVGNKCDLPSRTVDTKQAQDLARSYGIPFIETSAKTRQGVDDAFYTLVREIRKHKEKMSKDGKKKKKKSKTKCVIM

One may read the pIC50 as the negative decadic logarithm of the IC50, by convention in mol/L. As for `N#Cc1c(N)sc2c(F)ccc(-c3c(Cl)c4c5c(nc(OC[C@@]67CCCN6C[C@H](F)C7)nc5c3F)N(C3CCN(C(=O)[C@@H]5N[C@H]5C5CC5)C3)CCO4)c12` (stereo partly drawn) [Compound 915, 2-amino-4-(8-chloro-4-(1-((2R,3S)-3-cyclopropylaziridine-2-carbonyl)pyrrolidin-3-yl)-10-fluoro-2-(((2R,7aS)-2-fluorotetrahydro-1H-pyrrolizin-7a(5H)-yl)methoxy)-5,6-dihydro-4H-[1,4]oxazepino[5,6,7-de]quinazolin-9-yl)-7-fluorobenzo[b]thiophene-3-carbonitrile], the negative-log IC50 (pIC50) was greater than 6.30 with GP2D cells; greater than 5.30 in the assay on A549 cells; greater than 7.00 on K-Ras WT; greater than 7.00 on K-Ras G12V; greater than 5.30 with SW620 cells; greater than 7.00 on K-Ras G12S. The pIC50 on K-Ras G12D was greater than 7.00.
`N#Cc1c(N)sc2c(F)ccc(-c3c(Cl)c4c5c(nc(OC[C@@]67CCCN6C[C@H](F)C7)nc5c3F)N(C3CCN(C(=O)C5C6COCC65)C3)CCO4)c12` (stereo partly drawn) [Compound 916, 4-(4-(1-(3-oxabicyclo[3.1.0]hexane-6-carbonyl)pyrrolidin-3-yl)-8-chloro-10-fluoro-2-(((2R,7aS)-2-fluorotetrahydro-1H-pyrrolizin-7a(5H)-yl)methoxy)-5,6-dihydro-4H-[1,4]oxazepino[5,6,7-de]quinazolin-9-yl)-2-amino-7-fluorobenzo[b]thiophene-3-carbonitrile]: the negative logarithm of the IC50 (pIC50) is greater than 6.30 with GP2D cells; greater than 5.30 with A549 cells; greater than 7.00 at K-Ras WT; greater than 7.00 at K-Ras G12V; greater than 5.30 in the assay with SW620 cells; greater than 7.00 on K-Ras G12S. Also, the pIC50 on K-Ras G12D is greater than 7.00.
For the compound `CN1CCC(N2CCOc3c(Cl)c(-c4ccc(F)c5sc(N)c(C#N)c45)c(F)c4nc(OC[C@@]56CCCN5C[C@H](F)C6)nc2c34)C1` (stereo partly drawn) [Compound 921, 2-amino-4-(8-chloro-10-fluoro-2-(((2R,7aS)-2-fluorotetrahydro-1H-pyrrolizin-7a(5H)-yl)methoxy)-4-(1-methylpyrrolidin-3-yl)-5,6-dihydro-4H-[1,4]oxazepino[5,6,7-de]quinazolin-9-yl)-7-fluorobenzo[b]thiophene-3-carbonitrile], the negative logarithm of the IC50 (pIC50) in the assay on GP2D cells was greater than 6.30; with A549 cells it was greater than 5.30; on K-Ras WT, greater than 7.00; on K-Ras G12V it was greater than 7.00; in the assay with SW620 cells, greater than 5.30; on K-Ras G12S, greater than 7.00. In addition, on K-Ras G12D, the pIC50 was greater than 7.00.
Consider `CC(C1CC1C#N)N1CCOc2c(Cl)c(-c3ccc(F)c4sc(N)c(C#N)c34)c(F)c3nc(OC[C@@]45CCCN4C[C@H](F)C5)nc1c23` (stereo partly drawn) [Compound 923, 2-amino-4-(8-chloro-4-(1-(2-cyanocyclopropyl)ethyl)-10-fluoro-2-(((2R,7aS)-2-fluorotetrahydro-1H-pyrrolizin-7a(5H)-yl)methoxy)-5,6-dihydro-4H-[1,4]oxazepino[5,6,7-de]quinazolin-9-yl)-7-fluorobenzo[b]thiophene-3-carbonitrile], for which the pIC50 in the assay with GP2D cells was greater than 6.30; in the assay on A549 cells, greater than 5.30; at K-Ras WT, greater than 7.00; on K-Ras G12V, greater than 7.00; with SW620 cells, greater than 5.30; on K-Ras G12S, greater than 7.00. Besides, the negative logarithm of the IC50 (pIC50) at K-Ras G12D is greater than 7.00.
Take `N#Cc1c(N)sc2c(F)ccc(-c3c(Cl)c4c5c(nc(OC[C@@]67CCCN6C[C@H](F)C7)nc5c3F)N(CCC(F)(F)F)CCO4)c12` [Compound 932, 2-amino-4-(8-chloro-10-fluoro-2-(((2R,7aS)-2-fluorotetrahydro-1H-pyrrolizin-7a(5H)-yl)methoxy)-4-(3,3,3-trifluoropropyl)-5,6-dihydro-4H-[1,4]oxazepino[5,6,7-de]quinazolin-9-yl)-7-fluorobenzo[b]thiophene-3-carbonitrile]: the pIC50 with GP2D cells is greater than 6.30; in the assay on A549 cells it was greater than 5.30; on K-Ras WT it was greater than 7.00; at K-Ras G12V, greater than 7.00; with SW620 cells it was greater than 5.30; on K-Ras G12S it was greater than 7.00. For the same compound, at K-Ras G12D, the pIC50 is greater than 7.00.
Take `CC(CO)N1CCOc2c(Cl)c(-c3ccc(F)c4sc(N)c(C#N)c34)c(F)c3nc(OC[C@@]45CCCN4C[C@H](F)C5)nc1c23` (stereo partly drawn) [Compound 937, 2-amino-4-(8-chloro-10-fluoro-2-(((2R,7aS)-2-fluorotetrahydro-1H-pyrrolizin-7a(5H)-yl)methoxy)-4-(1-hydroxypropan-2-yl)-5,6-dihydro-4H-[1,4]oxazepino[5,6,7-de]quinazolin-9-yl)-7-fluorobenzo[b]thiophene-3-carbonitrile]: the negative-log IC50 (pIC50) with GP2D cells was greater than 6.30; in the assay on A549 cells, greater than 5.30; at K-Ras WT, greater than 7.00; on K-Ras G12V, greater than 7.00; in the assay on SW620 cells, greater than 5.30; on K-Ras G12S, greater than 7.00. On K-Ras G12D, the pIC50 was greater than 7.00.
In the case of `N#Cc1c(N)sc2c(F)ccc(-c3c(Cl)c4c5c(nc(OC[C@@]67CCCN6C[C@H](F)C7)nc5c3F)N([C@H]3CCN(C(=O)C(F)F)C3)CCO4)c12` [Compound 940, 2-amino-4-(8-chloro-4-((S)-1-(2,2-difluoroacetyl)pyrrolidin-3-yl)-10-fluoro-2-(((2R,7aS)-2-fluorotetrahydro-1H-pyrrolizin-7a(5H)-yl)methoxy)-5,6-dihydro-4H-[1,4]oxazepino[5,6,7-de]quinazolin-9-yl)-7-fluorobenzo[b]thiophene-3-carbonitrile], the pIC50 in the assay on GP2D cells is greater than 6.30; in the assay on A549 cells it was greater than 5.30; on K-Ras WT, greater than 7.00; at K-Ras G12V, greater than 7.00; with SW620 cells it was greater than 5.30; at K-Ras G12S it was greater than 7.00. In addition, the pIC50 on K-Ras G12D is greater than 7.00.
For the compound `CC1Oc2c(Cl)c(-c3ccc(F)c4sc(N)c(C#N)c34)c(F)c3nc(OC[C@@]45CCCN4C[C@H](F)C5)nc(c23)N(CC(F)F)C1C` (stereo partly drawn) [Compound 944, 2-amino-4-(8-chloro-4-(2,2-difluoroethyl)-10-fluoro-2-(((2R,7aS)-2-fluorotetrahydro-1H-pyrrolizin-7a(5H)-yl)methoxy)-5,6-dimethyl-5,6-dihydro-4H-[1,4]oxazepino[5,6,7-de]quinazolin-9-yl)-7-fluorobenzo[b]thiophene-3-carbonitrile], the negative-log IC50 (pIC50) in the assay on GP2D cells is greater than 6.30; in the assay with A549 cells, greater than 5.30; on K-Ras WT it was greater than 7.00; on K-Ras G12V, greater than 7.00; in the assay with SW620 cells it was greater than 5.30; at K-Ras G12S, greater than 7.00. Besides, the pIC50 at K-Ras G12D is greater than 7.00.
Take `C[C@H]1CN(CCN(C)C)c2nc(OC[C@@]34CCCN3C[C@H](F)C4)nc3c(F)c(-c4ccc(F)c5sc(N)c(C#N)c45)c(Cl)c(c23)O1` [Compound 950, 2-amino-4-((6S)-8-chloro-4-(2-(dimethylamino)ethyl)-10-fluoro-2-(((2R,7aS)-2-fluorotetrahydro-1H-pyrrolizin-7a(5H)-yl)methoxy)-6-methyl-5,6-dihydro-4H-[1,4]oxazepino[5,6,7-de]quinazolin-9-yl)-7-fluorobenzo[b]thiophene-3-carbonitrile]: the pIC50 was greater than 6.30 in the assay on GP2D cells; greater than 5.30 in the assay with A549 cells; greater than 7.00 on K-Ras WT; greater than 7.00 at K-Ras G12V; greater than 5.30 in the assay with SW620 cells; greater than 7.00 on K-Ras G12S. The pIC50 at K-Ras G12D is greater than 7.00.
Take `N#Cc1c(N)sc2c(F)ccc(-c3c(Cl)c4c5c(nc(OC[C@@]67CCCN6C[C@H](F)C7)nc5c3F)N(CC3CC(F)(F)C3)CCO4)c12` [Compound 951, 2-amino-4-(8-chloro-4-((3,3-difluorocyclobutyl)methyl)-10-fluoro-2-(((2R,7aS)-2-fluorotetrahydro-1H-pyrrolizin-7a(5H)-yl)methoxy)-5,6-dihydro-4H-[1,4]oxazepino[5,6,7-de]quinazolin-9-yl)-7-fluorobenzo[b]thiophene-3-carbonitrile]: the pIC50 in the assay with GP2D cells is greater than 6.30; with A549 cells it was greater than 5.30; on K-Ras WT it was greater than 7.00; at K-Ras G12V it was greater than 7.00; in the assay with SW620 cells, greater than 5.30; on K-Ras G12S, greater than 7.00. For the same compound, the negative logarithm of the IC50 (pIC50) at K-Ras G12D was greater than 7.00.
